Measurements from publication PMC6026185 (Scientific Reports, 2018).

Tests used:
hNKCC1A = molecular target: T1, hNKCC1A (Homo sapiens, UniProt P55011); assay: 86Rb+ uptake in hNKCC1A-expressing Xenopus laevis oocytes; format: cell-based; settings: 86Rb+ uptake, Xenopus oocytes, 5 min, corrected for uninjected oocytes; median and range of 3–7 experiments
T1 construct: Full-length NKCC1 (NKCC1A) comprises ~1200 amino acids; expressed in transfected cells; host or cells: Xenopus laevis oocytes injected with cRNA (pXOOM vector)
T1 sequence (P55011 1-1212): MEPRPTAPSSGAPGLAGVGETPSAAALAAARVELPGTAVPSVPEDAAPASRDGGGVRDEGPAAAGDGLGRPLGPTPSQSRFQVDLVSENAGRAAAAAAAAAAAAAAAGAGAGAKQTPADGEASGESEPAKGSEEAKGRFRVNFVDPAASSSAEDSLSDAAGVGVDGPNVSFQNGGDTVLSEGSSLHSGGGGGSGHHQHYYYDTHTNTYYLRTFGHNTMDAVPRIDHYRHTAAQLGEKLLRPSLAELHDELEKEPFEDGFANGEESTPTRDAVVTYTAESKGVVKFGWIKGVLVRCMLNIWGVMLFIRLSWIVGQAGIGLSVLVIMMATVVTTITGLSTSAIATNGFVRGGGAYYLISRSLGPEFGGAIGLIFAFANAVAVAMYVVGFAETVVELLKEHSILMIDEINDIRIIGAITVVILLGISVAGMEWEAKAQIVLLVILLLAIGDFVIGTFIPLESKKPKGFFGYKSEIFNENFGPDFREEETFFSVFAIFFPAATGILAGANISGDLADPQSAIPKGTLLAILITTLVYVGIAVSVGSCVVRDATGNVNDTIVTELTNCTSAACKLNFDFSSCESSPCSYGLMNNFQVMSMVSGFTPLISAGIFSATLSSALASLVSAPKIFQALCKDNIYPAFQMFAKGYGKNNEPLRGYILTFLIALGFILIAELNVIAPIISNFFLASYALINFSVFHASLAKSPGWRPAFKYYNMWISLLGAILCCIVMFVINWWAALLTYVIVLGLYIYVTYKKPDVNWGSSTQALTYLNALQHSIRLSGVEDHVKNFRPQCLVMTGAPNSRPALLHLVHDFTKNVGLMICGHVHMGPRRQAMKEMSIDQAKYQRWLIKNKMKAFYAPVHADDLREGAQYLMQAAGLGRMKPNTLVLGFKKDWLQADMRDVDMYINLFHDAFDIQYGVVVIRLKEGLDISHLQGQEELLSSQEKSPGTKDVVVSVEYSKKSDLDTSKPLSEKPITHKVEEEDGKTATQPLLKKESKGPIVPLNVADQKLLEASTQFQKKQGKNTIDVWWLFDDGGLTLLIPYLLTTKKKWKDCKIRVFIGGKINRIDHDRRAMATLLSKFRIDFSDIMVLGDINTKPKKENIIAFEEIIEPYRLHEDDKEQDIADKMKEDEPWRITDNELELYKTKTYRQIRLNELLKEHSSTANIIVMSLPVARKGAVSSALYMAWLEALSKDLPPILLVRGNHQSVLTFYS
Protocol: The oocytes were kept in Kulori medium (in mM: 90 NaCl, 1 KCl, 1 CaCl2, 1 MgCl2, 5 Hepes, pH 7.4, 182 mOsm) for 5–6 days at 19 °C prior to experiments.
To activate NKCC1A and NKCC1B prior to the ^86Rb^+ uptake measurements aimed at measuring NKCC-mediated fluxes, hNKCC1A- or hNKCC1B-expressing oocytes or uninjected control oocytes (4–13 oocytes per well) were pre-incubated for 30 min at room temperature in a K^+-free solution (containing in mM: 5 choline chloride, 95 NaCl, 1 MgCl2, 1 CaCl2, 10 Hepes, pH 7.4, 207 mOsm), which causes shrinkage of the oocyte and thus activation of NKCC1A[22]. […] The radioactivity was determined by liquid scintillation β-counting with Aquasafe 300 Plus scintillation cocktail (Zinsser Analytic GmbH, Frankfurt, Germany) using a Microbeta Trilux (Perkin Elmer). hNKCC1-mediated K^+ uptake was assessed as ([fluxNKCC1-expressing oocytes in presence of x µM drug]−[fluxuninjected oocytes in presence of x µM drug]), in order to correct for endogenous NKCC activity. […]
(§1) Significance of differences in transport activity of hNKCC1A or hNKCC1B expressing oocytes vs. uninjected oocytes were analyzed by the Kruskal-Wallis test followed by Dunn’s multiple comparisons test. […]

hNKCC1B = molecular target: T2, hNKCC1B (Homo sapiens, UniProt P55011); assay: 86Rb+ uptake in hNKCC1B-expressing Xenopus laevis oocytes; format: cell-based; settings: 5 min, corrected for uninjected oocytes, median and range of 3–7 experiments
T2 construct: expressed in transfected cells; host or cells: Xenopus laevis oocytes injected with cRNA (pXOOM vector)
T2 sequence (P55011 1-1196 isoform P55011-3): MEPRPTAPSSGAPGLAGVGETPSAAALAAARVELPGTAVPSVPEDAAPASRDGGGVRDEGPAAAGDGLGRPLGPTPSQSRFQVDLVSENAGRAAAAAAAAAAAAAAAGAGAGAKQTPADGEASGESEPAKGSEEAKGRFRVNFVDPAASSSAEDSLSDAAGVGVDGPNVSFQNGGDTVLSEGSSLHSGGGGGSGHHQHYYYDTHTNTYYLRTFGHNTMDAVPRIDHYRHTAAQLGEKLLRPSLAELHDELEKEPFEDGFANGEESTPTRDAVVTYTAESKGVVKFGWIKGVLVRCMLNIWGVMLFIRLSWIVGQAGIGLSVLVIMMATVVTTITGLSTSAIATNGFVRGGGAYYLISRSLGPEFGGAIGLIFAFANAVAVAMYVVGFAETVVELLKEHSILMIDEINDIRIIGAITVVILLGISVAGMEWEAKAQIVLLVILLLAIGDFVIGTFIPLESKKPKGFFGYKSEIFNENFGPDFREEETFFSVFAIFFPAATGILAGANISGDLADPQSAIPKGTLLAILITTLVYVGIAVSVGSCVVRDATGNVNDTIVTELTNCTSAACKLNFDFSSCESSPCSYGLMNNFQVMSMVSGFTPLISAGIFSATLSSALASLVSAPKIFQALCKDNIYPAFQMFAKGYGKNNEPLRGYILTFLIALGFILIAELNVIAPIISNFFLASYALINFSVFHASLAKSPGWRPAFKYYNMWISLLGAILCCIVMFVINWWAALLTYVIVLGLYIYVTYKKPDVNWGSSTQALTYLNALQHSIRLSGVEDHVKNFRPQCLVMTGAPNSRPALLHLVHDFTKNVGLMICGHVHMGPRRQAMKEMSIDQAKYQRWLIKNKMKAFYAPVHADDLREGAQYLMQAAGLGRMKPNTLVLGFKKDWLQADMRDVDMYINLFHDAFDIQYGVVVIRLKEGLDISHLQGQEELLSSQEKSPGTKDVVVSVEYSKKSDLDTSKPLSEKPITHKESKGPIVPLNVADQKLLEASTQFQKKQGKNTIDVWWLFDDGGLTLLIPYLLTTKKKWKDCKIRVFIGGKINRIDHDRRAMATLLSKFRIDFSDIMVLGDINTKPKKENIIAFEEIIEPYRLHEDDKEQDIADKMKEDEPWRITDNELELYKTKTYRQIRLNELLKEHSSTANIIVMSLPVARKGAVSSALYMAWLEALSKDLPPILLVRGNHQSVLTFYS
Description: Human NKCC1A (NM_001046, obtained from Prof. Biff Forbush, Yale School of Medicine, CT) and NKCC1B (prepared by site-directed mutagenesis from hNKCC1A as described below) were subcloned into the oocytes expression vector pXOOM, linearized downstream from the poly-A segment, and in vitro transcribed using T7-mMessage Machine according to manufacturer’s instructions (Ambion, Austin, TX). cRNA was then extracted with MEGAclear (Ambion, Austin, TX) and micro-injected into defolliculated Xenopus laevis oocytes (25 ng RNA/oocyte). The oocytes were kept in Kulori medium (in mM: 90 NaCl, 1 KCl, 1 CaCl2, 1 MgCl2, 5 Hepes, pH 7.4, 182 mOsm) for 5–6 days at 19 °C prior to experiments.
To activate NKCC1A and NKCC1B prior to the ^86Rb^+ uptake measurements aimed at measuring NKCC-mediated fluxes, hNKCC1A- or hNKCC1B-expressing oocytes or uninjected control oocytes (4–13 oocytes per well) were pre-incubated for 30 min at room temperature in a K^+-free solution (containing in mM: 5 choline chloride, 95 NaCl, 1 MgCl2, 1 CaCl2, 10 Hepes, pH 7.4, 207 mOsm), which causes shrinkage of the oocyte and thus activation of NKCC1A[22]. […]
as §1

hNKCC2 isoform A = settings: Xenopus oocytes; ref Payne et al.[57]; Isenring et al.[58]; Plata et al.[59]; Carota et al.[56]; Lykke et al.[60]; Lykke et al.[29]; read-out: IC50 (µM) NKCC2 (hA); cited from earlier work
mNKCC2 isoform A = tested on: mNKCC2 isoform A; design: method as in ref Payne et al.[57]; Isenring et al.[58]; Plata et al.[59]; Carota et al.[56]; Lykke et al.[60]; Lykke et al.[29]; settings: Xenopus oocytes; ref Payne et al.[57]; Isenring et al.[58]; Plata et al.[59]; Carota et al.[56]; Lykke et al.[60]; Lykke et al.[29]; read-out: IC50 (µM) NKCC2 (mA); cited from earlier work
[1] = design: method as in DrugBank database; settings: ref DrugBank database; cited from earlier work

Compound: CCCCNc1cc(C(=O)O)cc(S(N)(=O)=O)c1Oc1ccccc1 [Bumetanide]
- IC50 (hNKCC1A): 0.945 µM
- IC50 (hNKCC1B): 0.842 µM
- IC50 (hNKCC2 isoform A): 0.54 to 4 µM
- IC50 (mNKCC2 isoform A): 2 µM
- Lipophilicity (logP) [1]: 2.7
